Measured values from patent publication US8288432B2, “Tetrahydroindole derivatives as NADPH oxidase inhibitors” (Genkyotex SA, priority 2007, dated 2012).

How the values were obtained:
Assay type in all cases: cell-based, human
[1] = system: NOX activity in DMSO-differentiated HL60 cells; test: Amplex Red measurement of extracellular hydrogen peroxide (NOX activity) in DMSO-differentiated HL60 cells; conditions: DPI 10 μM, 'usually'
Description: Human acute myeloid leukemia cell line HL-60 was cultured in RPMI 1640 (Invitrogen) supplemented with 10% heat-inactivated calf serum, 2 mM glutamine, 100 U/mL penicillin (Sigma), and 100 μg streptomycin (Sigma) at 37° C. under a humidified atmosphere of 5% CO2. HL60 differentiation to the neutrophil phenotype was triggered by adding Me2SO (final concentration 1.25% v/v for 6 days) to the culture medium.
Extracellular hydrogen peroxide was measured using Amplex UltraRed (Molecular Probes). Cells were trypsinized (1× Trypsin-EDTA), collected by centrifugation, and resuspended in HBSS supplemented with 1% glucose. Cells were seeded into black 96-well plates at a density of 50'000 cells in 200 μl testing buffer (HBSS 1% glucose containing 0.005 U/mL horseradish peroxidase (Roche) and 50 μM Amplex Red in the presence or absence of compounds according to the invention. As a control, DPI was included at a final concentration of 10 μM The plates were placed in the fluorescent Optima Fluorescent plate reader and kept at 37° C. during 20 min. Fluorescence was measured for […] with excitation and emission wavelengths of 544 and 590 nm respectively. NOX activities were expressed as % of the activity in control cells. […]
The table 1 below summarizes the percentage of inhibition of NOX activity as measured by Amplex Red using DMSO-differentiated HL60 cells as described above: […]

[2] = system: NOX activity (superoxide formation in cells); test: Nitroblue tetrazolium (NBT) test of intracellular and extracellular superoxide in cell cultures; conditions: DPI 10 μM, 'usually'
Description: The activity of the compounds according to the invention may be tested for their activity in the inhibition or reduction of formation of reactive oxygen species (ROS) from oxygen in cells. The activity of the compounds is tested in the following cell cultures by different techniques such as nitroblue tetrazolium, Amplex Red, Chemiluminescence (Luminol) and 2′,7′-dichlorodihydrofluorescein diacetate (H2DCF-DA) according to the protocols detailed below.
Human microglia cell line (HMC3, human microglia clone 3) (Janabi et al, 1995, Neurosci Lett 195:105) were cultured in MEM (Eagle's minimum essential medium) containing 10% FBS with 50 U/mL penicillin G sodium 50 μg/mL streptomycin sulfate, and incubated at 37° C. for 24 hours. IFN-γ (human IFN-γ, Roche. 11 040 596 001) was added to the culture medium for a final concentration of 10 ng/mL 24 h, before detection of O2^− formation. […]
Intracellular and extracellular superoxide was measured by a colorimetric technique using a quantitative nitroblue tetrazolium (NBT) test. SOD-inhibitable conversion of NBT to formazan, a fine blue precipitate, in the presence of superoxide anion was measured using Fluostar Optima spectrometer (BMG labtech). […] The absorption was measured at 630 nm. For calculation, the absorbance at 630 nm was normalized for each individual well. […] NOX activities were expressed as % of the activity in control cells. […]

[3] = system: NOX activity (ROS in cells); test: Chemiluminescence (luminol) measurement of ROS in cells; conditions: 'usually'
Description: 3. Chemiluminescence (Luminol)
ROS was measured using the chemiluminescent probe luminol. Cells were cultured and plated as for Amplex Red except that the Amplex Red agent was replaced by 10 μg/mL luminol (Sigma 09235). Light emission was recorded continuously at 37° C. for 60 minutes using the luminescence function of the FluoStar Optima fluorescent plate reader. The mean of the four blank values was subtracted from each corrected value for each time point. NOX activities were expressed as % of the activity in control cells. Residual activity of DPI-treated cells was usually <10%.

NOX activity in HUVEC = test: H2DCF-DA (DCF fluorescence) ROS measurement in TGF-β stimulated HUVEC; conditions: 'usually'
Description: Human Umbilical Vein Endothelial Cells (HUVEC)
HUVEC are cultured in endothelial basal medium supplemented with hydrocortisone (1 μg/mL, CalbioChem), bovine brain extract (12 μg/mL), gentamicin (50 μg/mL, CalbioChem), amphotericin B (50 ng/mL, CalBioChem EGF (10 ng/mL, and 10% FCS until the fourth passage. When the fifth passage was started, cells were cultured with a lower concentration of FCS (2%) in the absence of EGF, if not indicated otherwise. All experiments were done with cells of the fifth passage. The cells were incubated with OxLDL (oxidized low-density lipoprotein) or its buffer as control for 24 h, before detection of O2^− formation.
4. 2′,7′-dichlorodihydrofluorescein diacetate (H2DCF-DA)
HUVEC were plated on coverslips and made quiescent overnight in 0.5% BSA before stimulation with TGF-β. Cells were loaded for 10 minutes with 5 μM CM-H2DCFDA in phenol-red-free medium in the dark and then treated with TGF-β (R&D Systems) in the presence or absence of compounds according to the invention. […] DCF fluorescence was visualized at an excitation wavelength of 488 nm and emission at 515 to 540 nm. […] For calculation, the absorbance at […] was normalized to absorbance at […] for each individual well. […] NOX activities were expressed as % of the activity in control cells. […]

Measured: Residual activity of DPI-treated cells (NOX activity as % of the activity in control cells)

c1ccc([I+]c2ccccc2)cc1 [DPI, Diphenyliodonium]
< 10%: all assays above
